Among the data in publication PMC3274767 (2012) are EC50 and Kd values, retold here.

Assay [1] deals with T1, GABAA receptor α1 subunit (α1β3 GABAAR) (Homo sapiens, UniProt P14867+P28472).
T1 sequence (P14867 28-456): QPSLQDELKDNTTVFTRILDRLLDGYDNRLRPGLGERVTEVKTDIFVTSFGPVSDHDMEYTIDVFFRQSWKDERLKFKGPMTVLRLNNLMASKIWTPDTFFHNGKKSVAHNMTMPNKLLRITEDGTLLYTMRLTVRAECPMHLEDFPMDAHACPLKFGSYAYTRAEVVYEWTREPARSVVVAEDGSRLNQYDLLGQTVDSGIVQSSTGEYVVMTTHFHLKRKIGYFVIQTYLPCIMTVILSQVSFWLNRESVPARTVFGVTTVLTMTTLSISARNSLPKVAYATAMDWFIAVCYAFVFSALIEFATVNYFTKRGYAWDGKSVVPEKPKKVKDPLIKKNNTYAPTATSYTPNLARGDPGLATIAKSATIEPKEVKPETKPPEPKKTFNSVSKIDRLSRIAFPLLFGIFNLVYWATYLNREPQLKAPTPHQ
T1 sequence (P28472 26-473): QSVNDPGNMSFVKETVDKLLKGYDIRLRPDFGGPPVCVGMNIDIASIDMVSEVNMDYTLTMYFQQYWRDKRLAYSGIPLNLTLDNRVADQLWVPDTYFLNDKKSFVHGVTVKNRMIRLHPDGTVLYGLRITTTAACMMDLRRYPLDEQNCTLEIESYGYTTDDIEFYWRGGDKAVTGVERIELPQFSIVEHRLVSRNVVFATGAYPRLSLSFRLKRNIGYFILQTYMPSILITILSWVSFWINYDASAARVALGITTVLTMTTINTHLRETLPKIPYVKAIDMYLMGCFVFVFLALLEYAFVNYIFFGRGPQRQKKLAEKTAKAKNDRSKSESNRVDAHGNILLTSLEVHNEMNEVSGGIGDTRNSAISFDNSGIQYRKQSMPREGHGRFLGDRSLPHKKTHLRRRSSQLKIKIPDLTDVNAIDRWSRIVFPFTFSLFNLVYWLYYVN
The assay can be described thus: photoaffinity labeling with residue identification. Type of assay: binding.

Assay [2] has as its target T2, GABAA receptor β3 subunit (α1β3 GABAAR) (Homo sapiens, UniProt P14867+P28472).
T2 sequence (P28472 26-473): T1 sequence (P28472 26-473)
T2 sequence (P14867 28-456): T1 sequence (P14867 28-456)
The assay can be described thus: photoaffinity labeling with residue identification. Type of assay: binding.

In assay [3] the target is T2, GABAA receptor β3 subunit (α1β3 GABAAR). The assay can be described thus: [3H]muscimol radioligand filtration binding to purified receptor. The note with it: cited from earlier work.

A word on the EC50: it is the concentration that produces a half-maximal response. Regarding `CC(c1ccccc1)n1cncc1C(=O)OCCC1(C)N=N1` (stereo not drawn) [azietomidate, 2-(3-methyl-3H-diaziren-3-yl) ethyl 1-(1-phenylethyl)-1H-imidazole-5-carboxylate], the EC50 in assay [1] and in assay [2] was 2700 ± 1000 nM in each case.

What is called Kd is the constant that tells how readily two partners part at equilibrium. `NCc1cc(=O)[nH]o1` [muscimol, 3-hydroxy-5-aminomethylisoxazole]: the Kd in assay [3] was 10 nM.
